Source: article PMC10175918 (Communications Biology, 2023)
Where two headings read alike, the source gives them in different places.

How the values were obtained:
Test in all cases: TGFα-shedding assay-based GPCR screening with chimeric Gα subunit proteins
Assay type in all cases: cell-based
348 GPCRs [1] = biological target: T1, 348 GPCRs (Homo sapiens, UniProt Q9NSD7); conditions: RXFP3 (relaxin/insulin-like family peptide receptor 3); 10µM, Favipiravir 100μM
T1 construct: expressed in transfected cells; host or cells: HEK293A
T1 sequence (Q9NSD7 1-469): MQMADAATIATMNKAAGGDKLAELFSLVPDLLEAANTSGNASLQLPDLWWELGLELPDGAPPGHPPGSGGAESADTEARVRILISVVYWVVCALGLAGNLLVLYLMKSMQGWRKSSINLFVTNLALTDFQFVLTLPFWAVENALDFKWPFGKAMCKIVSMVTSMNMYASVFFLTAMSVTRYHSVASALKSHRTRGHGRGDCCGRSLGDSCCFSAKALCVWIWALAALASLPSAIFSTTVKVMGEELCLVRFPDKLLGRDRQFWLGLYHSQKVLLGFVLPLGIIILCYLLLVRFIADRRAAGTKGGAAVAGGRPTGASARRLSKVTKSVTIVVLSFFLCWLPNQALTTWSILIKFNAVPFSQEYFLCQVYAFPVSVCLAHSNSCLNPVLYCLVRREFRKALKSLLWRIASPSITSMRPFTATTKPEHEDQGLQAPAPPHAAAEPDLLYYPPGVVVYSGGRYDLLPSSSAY

348 GPCRs [2] = biological target: T2, 348 GPCRs (Homo sapiens, UniProt Q02643); conditions: 10µM, Favipiravir 100μM
T2 construct: expressed in transfected cells; host or cells: HEK293A
T2 sequence (Q02643 23-423): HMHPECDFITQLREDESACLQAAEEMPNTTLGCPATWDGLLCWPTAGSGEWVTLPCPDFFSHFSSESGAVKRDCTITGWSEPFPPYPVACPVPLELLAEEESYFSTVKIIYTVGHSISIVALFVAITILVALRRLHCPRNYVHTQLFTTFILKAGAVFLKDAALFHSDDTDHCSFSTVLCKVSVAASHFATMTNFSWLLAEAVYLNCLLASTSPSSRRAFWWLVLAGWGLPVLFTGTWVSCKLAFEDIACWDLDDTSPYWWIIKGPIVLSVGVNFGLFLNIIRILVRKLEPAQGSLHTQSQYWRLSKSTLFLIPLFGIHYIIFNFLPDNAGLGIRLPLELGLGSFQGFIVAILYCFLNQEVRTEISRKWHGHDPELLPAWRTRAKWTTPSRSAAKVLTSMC

348 GPCRs [3] = biological target: T3, 348 GPCRs (Homo sapiens, UniProt Q96G91)
T3 construct: expressed in transfected cells; host or cells: HEK293A
T3 sequence (Q96G91 1-374): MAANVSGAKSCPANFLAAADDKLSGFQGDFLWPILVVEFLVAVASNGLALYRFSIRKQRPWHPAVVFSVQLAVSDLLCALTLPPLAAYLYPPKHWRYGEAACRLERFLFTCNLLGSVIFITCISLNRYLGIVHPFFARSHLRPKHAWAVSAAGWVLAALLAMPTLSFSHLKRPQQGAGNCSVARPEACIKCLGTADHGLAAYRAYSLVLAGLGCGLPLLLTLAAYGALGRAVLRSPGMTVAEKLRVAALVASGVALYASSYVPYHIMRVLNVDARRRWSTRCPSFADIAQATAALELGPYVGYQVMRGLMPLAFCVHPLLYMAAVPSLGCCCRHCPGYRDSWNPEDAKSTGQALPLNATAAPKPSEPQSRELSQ

348 GPCRs [4] = biological target: 348 GPCRs (Homo sapiens, UniProt O43193); conditions: 10µM, Favipiravir 100μM
348 GPCRs (Homo sapiens, UniProt O43193), sequence (O43193 whole entry): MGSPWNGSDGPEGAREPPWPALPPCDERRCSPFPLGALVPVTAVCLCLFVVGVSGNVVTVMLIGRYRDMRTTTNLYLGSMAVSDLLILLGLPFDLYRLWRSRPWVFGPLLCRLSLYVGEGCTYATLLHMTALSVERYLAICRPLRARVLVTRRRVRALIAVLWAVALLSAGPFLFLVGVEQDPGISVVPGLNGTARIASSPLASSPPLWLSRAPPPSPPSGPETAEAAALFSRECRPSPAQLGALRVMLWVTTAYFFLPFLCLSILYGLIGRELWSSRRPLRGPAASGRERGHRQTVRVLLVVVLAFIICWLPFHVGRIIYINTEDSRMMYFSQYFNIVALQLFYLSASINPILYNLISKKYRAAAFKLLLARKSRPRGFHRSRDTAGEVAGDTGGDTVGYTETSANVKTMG

348 GPCRs [5] = biological target: T4, 348 GPCRs (Homo sapiens, UniProt Q969V1); conditions: 10µM, Favipiravir 100μM
T4 construct: expressed in transfected cells; host or cells: HEK293A
T4 sequence (Q969V1 whole entry): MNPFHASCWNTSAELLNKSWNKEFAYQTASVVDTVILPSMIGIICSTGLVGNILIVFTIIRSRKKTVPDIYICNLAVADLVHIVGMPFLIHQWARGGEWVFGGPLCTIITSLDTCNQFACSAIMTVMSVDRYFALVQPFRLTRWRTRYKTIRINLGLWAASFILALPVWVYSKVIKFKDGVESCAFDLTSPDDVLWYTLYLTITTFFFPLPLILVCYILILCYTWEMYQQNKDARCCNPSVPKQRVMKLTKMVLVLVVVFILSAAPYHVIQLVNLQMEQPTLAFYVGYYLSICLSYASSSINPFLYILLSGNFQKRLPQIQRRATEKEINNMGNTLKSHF

348 GPCRs [6] = biological target: T5, 348 GPCRs (Homo sapiens, UniProt Q86SQ6)
T5 construct: expressed in transfected cells; host or cells: HEK293A
T5 sequence (Q86SQ6 1-560): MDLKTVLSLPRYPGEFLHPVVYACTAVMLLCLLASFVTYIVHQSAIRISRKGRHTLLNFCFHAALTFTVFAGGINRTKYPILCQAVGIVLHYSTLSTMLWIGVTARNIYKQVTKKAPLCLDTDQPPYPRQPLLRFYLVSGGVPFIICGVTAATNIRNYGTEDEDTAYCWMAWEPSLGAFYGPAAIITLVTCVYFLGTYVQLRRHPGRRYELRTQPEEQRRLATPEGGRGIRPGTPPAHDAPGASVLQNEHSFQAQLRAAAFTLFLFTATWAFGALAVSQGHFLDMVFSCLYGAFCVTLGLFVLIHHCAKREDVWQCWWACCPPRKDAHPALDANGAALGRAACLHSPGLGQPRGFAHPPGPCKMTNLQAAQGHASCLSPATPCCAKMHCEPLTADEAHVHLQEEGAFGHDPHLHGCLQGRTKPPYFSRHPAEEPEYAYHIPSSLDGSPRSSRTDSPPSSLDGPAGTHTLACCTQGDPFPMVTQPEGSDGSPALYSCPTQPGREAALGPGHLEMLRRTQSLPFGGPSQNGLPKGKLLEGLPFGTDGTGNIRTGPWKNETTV

[7] = GHRHR (growth hormone releasing hormone receptor), read-out: % GPCR activation compared to TPA
[8] = GPCR P2Y11 (purinergic receptor P2Y, G-protein coupled, 11), read-out: % GPCR activation compared to TPA
[9] = MLNR (motilin receptor), read-out: % GPCR activation compared to TPA
[10] = MCHR2 (melanin concentrating hormone receptor 2), read-out: % GPCR activation compared to TPA
[11] = GPCR GPR123 (Adhesion G Protein-Coupled Receptor A1 (ADGRA1)), read-out: % GPCR activation compared to TPA
[12] = read-out: % GPCR activation compared to TPA, GHRHR (growth hormone releasing hormone receptor)
[13] = read-out: % GPCR activation compared to TPA, GPCR P2Y11 (purinergic receptor P2Y, G-protein coupled, 11)
[14] = read-out: % GPCR activation compared to TPA, MLNR (motilin receptor)
[15] = read-out: % GPCR activation compared to TPA, MCHR2 (melanin concentrating hormone receptor 2)
[16] = read-out: % GPCR activation compared to TPA, GPCR GPR123 (Adhesion G Protein-Coupled Receptor A1 (ADGRA1))

SMILES | % GPCR activation compared to TPA (348 GPCRs [1]) [%] | activation at 100 µM (348 GPCRs [2]; [7]) [%] | activation at 10 µM (348 GPCRs [3]; [8]) [%] | activation at 100 µM (348 GPCRs [4]; [9]) [%] | activation at 10 µM (348 GPCRs [5]; [10]) [%] | activation at 10 µM (348 GPCRs [6]; [11]) [%] | activation at 100 µM (348 GPCRs [2]; [12]) [%] | activation at 10 µM (348 GPCRs [3]; [13]) [%] | activation at 100 µM (348 GPCRs [4]; [14]) [%] | activation at 10 µM (348 GPCRs [5]; [15]) [%] | activation at 10 µM (348 GPCRs [6]; [16]) [%] | activation at 100 µM (348 GPCRs [3]; GPCR P2Y11 (purinergic receptor P2Y, G-protein coupled, 11), 100μM, read-out: % GPCR activation compared to TPA) [%] | activation at 100 µM (348 GPCRs [6]; GPCR GPR123 (Adhesion G Protein-Coupled Receptor A1 (ADGRA1)), 100μM, read-out: % GPCR activation compared to TPA) [%]
N#C[C@@]1(c2ccc3c(N)ncnn23)O[C@H](CO)[C@@H](O)[C@H]1O [GS441524] | 1.985 | 1.38 | -16.3 | -7.84 | -0.458 | 0.375 | – | – | – | – | – | – | –
CC(C)OC(=O)[C@H](C)N[P@](=O)(OC[C@H]1O[C@@H](n2ccc(=O)[nH]c2=O)[C@](C)(F)[C@@H]1O)Oc1ccccc1 [sofosbuvir] | -2.192 | – | – | – | – | – | -2.19 | -20.5 | -0.32 | -1.19 | 0.445 | – | –
CCC(CC)COC(=O)[C@H](C)N[P@](=O)(OC[C@H]1O[C@@](C#N)(c2ccc3c(N)ncnn23)[C@H](O)[C@@H]1O)Oc1ccccc1 [remdesivir] | 3.551 | – | – | – | – | – | 5.92 | -12.5 | -3.19 | -3.7 | -0.903 | – | –
CC(C)C(=O)OC[C@H]1O[C@@H](n2ccc(NO)nc2=O)[C@H](O)[C@@H]1O [molnupiravir] | -2.923 | -0.966 | -21.8 | -1.09 | -3.92 | -2.47 | – | – | – | – | – | – | –
NC(=O)c1nc(F)cnc1O [favipiravir, 6-fluoro-3-hydroxy-2-pyrazinecarboxamide] | 1.399 | 6.96 | – | -4.07 | -2.23 | – | – | – | – | – | – | -11.1 | -1.45
